From patent US12319710B2, “Catecholamine prodrugs for use in the treatment of Parkinson's diseases” (H. Lundbeck A/S, priority 2019, dated 2025)
“Also recorded” adds a separate entry of the source.

Tests used:
human 5-HT2B receptor = target: T1, human 5-HT2B receptor (Homo sapiens, UniProt P41595); assay: 5-HT2B radioligand binding assay ([125I](±)DOI, CHO cell membranes); details: read-out: 5-HT2B % @ 10 μM (binding affinity, % inhibition of control specific binding)
T1 construct: host or cells: CHO cells (membrane homogenates)
Description: Evaluation of the affinity of compounds for the human 5-HT2B receptor was determined in a radioligand binding assay at Eurofins/Cerep (France). Membrane homogenates prepared from CHO cells expressing the human 5HT2B receptor were incubated for 60 minutes at room temperature with 0.2 nM [1251](±)DOI (1-(4-iodo-2, 5-dimethoxyphenyl)propan-2-amine) in the absence or presence of the test compound in a buffer containing 50 mM Tris-HCl (pH 7.4), 5 mM MgCl2, 10 μM pargyline and 0.1% ascorbic acid. Nonspecific binding is determined in the presence of 1 μM (±)DOI. Following incubation, the samples were filtered rapidly under vacuum through glass fiber filters (GF/B, Packard) presoaked with 0.3% polyethyleneimine (PEI) and rinsed several times with ice-cold 50 mM Tris-HCl using a 96-sample cell harvester (Unifilter, Packard). The filters were dried and counted for radioactivity in a scintillation counter (Topcount, Packard) using a scintillation cocktail (Microscint 0, Packard). The results are expressed as a percent inhibition of the control radioligand specific binding. The standard reference compound was (±)DOI, which was tested in each experiment at several concentrations to obtain a competition curve from which its IC50 is calculated.

[1] = Conversion of compounds in human plasma; assay type: in vitro ADME; details: for Observed metabolite, incubation in human plasma: 1 μM test compound, 37° C., 0-6 hours, nd: not detected
Description: Frozen human plasma was thawed and then centrifuged at 3200×g for 5 minutes to remove debris. The pH value of the supernatant was then measured and adjusted to 7.4±0.1 by adding 1% phosphoric acid or 1 N sodium hydroxide. 2 μL of dosing solution (50 μM for test compounds and 100 μM for positive control (propantheline bromide)) was mixed with 98 μL of blank plasma to achieve 1 μM test compound and 2 μM positive control of final concentration. The mixture was incubated, and samples were withdrawn from the incubations at the pre-determined time points of 0, 0.5, 1, 2, 4 and 6 hours (in duplicate) at 37° C. in water bath. At each corresponding time point 10 μL inhibitor and 20 μL ascorbic acid and 2 μL formic acid (20%) are added, and then added 400 μL of “stop solution” (200 ng/mL tolbutamide plus 200 ng/mL labetalol in 50% ACN/MeOH) to precipitate protein. The substance was mixed thoroughly and thereafter centrifugated at 4,000 rpm for 20 minutes. Then an aliquot of supernatant (50 μL) was transferred from each well to a sample plate and mixed with 100 μL ultrapure water. The plate was shaked at 800 rpm for about 10 minutes before submitting to LC-MS/MS analysis.
(§1) Instrumentation Used for Analysis of Plasma and Hepatocyte Incubation Samples
(§2) Mass spectrometer (LC-MS/MS) Shimadzu LC 20-AD Shimadzu UHPLC API 4000. Analytical column ACQUITY UPLC® BEH Phenyl 1.7 μm 2.1×50 mm. Mobile phase A: 0.1% Formic Acid in Water. Mobile phase B: 0.1% Formic Acid in Acetonitrile. […] Flow rate 0.7 mL/min.

human hepatocytes = assay: Conversion of compounds in human hepatocytes; assay type: in vitro ADME; details: 1 μM compound, 37° C.; nd: not detected
Description: Incubations were conducted in 96-well plates at 1 μM compound concentration in duplicate. The hepatocyte cell concentration was 0.5×10^6 cells/mL used for final incubation at 37° C. in an incubator of 5% CO2 95% relative humidity. The medium control samples were included at 0 and 60 minutes in the absence of cells. The total organic concentration was 1% (DMSO 0.1%) in the final incubation. The controls, (7-ethoxycoumarin and 7-hydroxycoumarin) was incubated parallel at […]. 2 μL of dosing solution (50 μM for test compounds and 100 μM for positive control) was mixed with 98 μL of 100 mM PBS to achieve 1 μM test compound and 2 μM positive control of final concentration. The mixture was incubated, and samples were withdrawn from the incubations at pre-determined time points of 0, 0.5, 1, 2, 4 and 6 hour (in duplicate) at 37° C. in water bath. To each sample, 10 μL inhibitor and 20 μL ascorbic acid and 2 μL formic acid (20%) were added followed by 400 μL of stop solution (200 ng/mL tolbutamide plus 200 ng/mL labetalol in 50% ACN/MeOH). The substance was mixed thoroughly and thereafter centrifuged at 4,000 rpm for 20 minutes. An aliquot of supernatant (50 μL) from each well were transferred to a sample plate and mixed with 100 μL ultrapure water. The plate was shaked at 800 rpm for about 10 minutes before submitting to LC-MS/MS analysis.
as §1, §2

[2] = PK experiments in rats: plasma compound (I) after oral dosing of prodrug; assay type: in vivo, Wistar rats; details: for Observed metabolite, in vivo PK study after oral dosing (rats): plasma
Description: Plasma was placed on water-ice following collection. Final storage at approximately −70° C.
Mobile phase B: Acetonitrile. […] Flow rate 0.5 mL/min.
The rats had unrestricted access to the diet.
Mobile phase B: Acetonitrile+0.2% formic acid. […] Flow rate 0.3 mL/min.
Dosing and blood sampling: Han Wistar rats were supplied by Envigo, UK. […] The rats received a standard laboratory diet Teklad 2014C. The rats had unrestricted access to the diet. […] Rats were given […] (Ic), 487 ag/kg compound (7), 487 ag/kg Compound (4), 674 ag/kg compound (9), 359 ag/kg A6 and 551 ag/kg A2.

T1 sequence (P41595 whole entry): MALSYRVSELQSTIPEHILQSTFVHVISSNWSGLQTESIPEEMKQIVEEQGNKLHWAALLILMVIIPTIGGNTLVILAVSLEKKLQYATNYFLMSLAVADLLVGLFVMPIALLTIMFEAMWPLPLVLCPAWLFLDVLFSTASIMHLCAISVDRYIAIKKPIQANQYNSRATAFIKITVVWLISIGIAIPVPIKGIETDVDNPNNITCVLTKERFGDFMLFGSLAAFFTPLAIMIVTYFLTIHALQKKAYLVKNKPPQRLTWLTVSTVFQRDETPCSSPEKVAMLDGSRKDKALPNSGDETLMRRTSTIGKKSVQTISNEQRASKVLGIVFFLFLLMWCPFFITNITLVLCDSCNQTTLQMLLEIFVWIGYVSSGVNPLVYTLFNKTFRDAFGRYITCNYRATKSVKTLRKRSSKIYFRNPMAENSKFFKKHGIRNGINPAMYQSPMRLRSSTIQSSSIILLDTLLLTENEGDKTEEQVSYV

Row | Compound | inhibition at 10 µM (human 5-HT2B receptor) [%] | Observed metabolite, incubation in human plasma [1] | Observed metabolite, incubation in human hepatocytes (human hepatocytes) | Observed metabolite, in vivo PK study after oral dosing (rats) [2] | also measured
1 | CCCN1CCC[C@@H]2Cc3c(ccc(O[C@@H]4O[C@H](CO)[C@@H](O)[C@H](O)[C@H]4O)c3O)C[C@H]21 [Compound (7), (2S,3R,4S,5S,6R)-2-(((4aR,10aR)-6-hydroxy-1-propyl-1,2,3,4,4a,5,10,10a-octahydrobenzo[g]quinolin-7-yl)oxy)-6-(hydroxymethyl)tetrahydro-2H-pyran-3,4,5-triol] | 7 | – | – | – | –
2 | CCCN1CCC[C@@H]2Cc3c(ccc(O[C@@H]4O[C@H](CO)[C@@H](O)[C@H](O)[C@H]4O)c3O[C@@H]3O[C@H](CO)[C@@H](O)[C@H](O)[C@H]3O)C[C@H]21 [Compound (9), (2R,2′R,3S,3′S,4S,4′S,5R,5′R,6S,6′S)-6,6′-(((4aR,10aR)-1-propyl-1,2,3,4,4a,5,10,10a-octahydrobenzo[g]quinoline-6,7-diyl)bis(oxy))bis(2-(hydroxymethyl)tetrahydro-2H-pyran-3,4,5-triol)] | -5 | Compound (7) | Compound (4); also recorded: Compound (7) | Compound (I) | –
3 | CCCN1CCC[C@@H]2Cc3c(ccc(O)c3O[C@@H]3O[C@H](CO)[C@@H](O)[C@H](O)[C@H]3O)C[C@H]21 [Compound (4), (2S,3R,4S,5S,6R)-2-(((4aR,10aR)-7-hydroxy-1-propyl-1,2,3,4,4a,5,10,10a-octahydrobenzo[g]quinolin-6-yl)oxy)-6-(hydroxymethyl)tetrahydro-2H-pyran-3,4,5-triol] | 0 | – | Compound (I) | Compound (I) | Observed metabolite, in vivo PK study after oral dosing (rats) ([2]; listed as compound (4)): showed conversion in vivo
4 | CCCN1CCC[C@@H]2Cc3c(ccc(O)c3O)C[C@H]21 [(I), (4aR,10aR)-1-Propyl-1,2,3,4,4a,5,10,10a-octahydro-benzo[g]quinoline-6,7-diol, reference compound] | – | – | – | – | half-life in the plasma assay ([1]; human plasma incubation): short half-life
5 | CCCN1CCC[C@@H]2Cc3c(ccc(O)c3O[C@@H]3O[C@H](COC(C)=O)[C@@H](OC(C)=O)[C@H](OC(C)=O)[C@H]3OC(C)=O)C[C@H]21 [Compound (2), (2R,3R,4S,5R,6S)-2-(acetoxymethyl)-6-(((4aR,10aR)-7-hydroxy-1-propyl-1,2,3,4,4a,5,10,10a-octahydrobenzo[g]quinolin-6-yl)oxy)tetrahydro-2H-pyran-3,4,5-triyl triacetate] | -6 | Glucuronide | – | – | Observed metabolite, incubation in human plasma ([1]; listed as compound (2)): glucuronide derivative
6 | CCCN1CCC[C@@H]2Cc3c(ccc(OCc4ccccc4)c3O)C[C@H]21 [Compound A2, (4aR,10aR)-7-(benzyloxy)-1-propyl-1,2,3,4,4a,5,10,10a-octahydrobenzo[g]quinolin-6-ol] | 30 | Compound (I) | Compound (I) | Compound (I) | –
7 | CCCN1CCC[C@@H]2Cc3c(ccc(OC)c3O)C[C@H]21 [Compound A6, (4aR,10aR)-7-methoxy-1-propyl-1,2,3,4,4a,5,10,10a-octahydrobenzo[g]quinolin-6-ol] | 24 | – | Compound (I) | Compound (I) | –
8 | CCCN1CCC[C@@H]2Cc3c(ccc(OC(C)=O)c3O[C@@H]3O[C@H](COC(C)=O)[C@@H](OC(C)=O)[C@H](OC(C)=O)[C@H]3OC(C)=O)C[C@H]21 [Compound (3), (2S,3R,4S,5R,6R)-2-(((4aR,10aR)-7-acetoxy-1-propyl-1,2,3,4,4a,5,10,10a-octahydrobenzo[g]quinolin-6-yl)oxy)-6-(acetoxymethyl)tetrahydro-2H-pyran-3,4,5-triyl triacetate] | 18 | – | Compound (4) | – | –
9 | CCCN1CCC[C@@H]2Cc3c(ccc(O[C@@H]4O[C@H](COC(C)=O)[C@@H](OC(C)=O)[C@H](OC(C)=O)[C@H]4OC(C)=O)c3O[C@@H]3O[C@H](COC(C)=O)[C@@H](OC(C)=O)[C@H](OC(C)=O)[C@H]3OC(C)=O)C[C@H]21 [Compound (8), [(2R,3R,4S,5R,6S)-6-[[(4aR,10aR)-1-propyl-6-[(2S,3R,4S,5R,6R)-3,4,5-triacetoxy-6-(acetoxymethyl)tetrahydropyran-2-yl]oxy-3,4,4a,5,10,10a-hexahydro-2H-benzo[g]quinolin-7-yl]oxy]-3,4,5-triacetoxy-tetrahydropyran-2-yl]methyl acetate] | -12 | – | – | – | –
10 | CCCN1CCC[C@@H]2Cc3c(ccc(O[C@@H]4O[C@H](COC(C)=O)[C@@H](OC(C)=O)[C@H](OC(C)=O)[C@H]4OC(C)=O)c3OC(C)=O)C[C@H]21 [Compound (6), (2S,3R,4S,5R,6R)-2-(((4aR,10aR)-6-acetoxy-1-propyl-1,2,3,4,4a,5,10,10a-octahydrobenzo[g]quinolin-7-yl)oxy)-6-(acetoxymethyl)tetrahydro-2H-pyran-3,4,5-triyl triacetate] | -5 | Compound (7); also recorded: Compound (5) | Compound (7); also recorded: Compound (5) | – | –
11 | CCCN1CCC[C@@H]2Cc3c(ccc(O[C@@H]4O[C@H](COC(C)=O)[C@@H](OC(C)=O)[C@H](OC(C)=O)[C@H]4OC(C)=O)c3O)C[C@H]21 [Compound (5), (2R,3R,4S,5R,6S)-2-(acetoxymethyl)-6-(((4aR,10aR)-6-hydroxy-1-propyl-1,2,3,4,4a,5,10,10a-octahydrobenzo[g]quinolin-7-yl)oxy)tetrahydro-2H-pyran-3,4,5-triyl triacetate] | 9 | Compound (7) | Compound (7) | – | –
12 | CCCN1CCC[C@@H]2Cc3c(ccc(OC(=O)C(C)(C)C)c3OC(=O)C(C)(C)C)C[C@H]21 [(Ic), reference compound] | -5 | – | – | – | plasma concentrations of compound (I) after oral dosing (in words) ([2]; Wistar rats, oral): extremely low
